Reference: US20220251084A1, “PROGRANULIN MODULATORS AND METHODS OF USING THE SAME” (ARKUDA THERAPEUTICS, priority 2019, published 2022)
Where a name gives a salt, the structure may show the parent alone.

system: progranulin (PGRN) secretion, BV-2 cells; assay: PGRN assay: progranulin induction cellular assay (ELISA of secreted mouse PGRN); format: cell-based; conditions: not given
Summary of the method: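 Progranulin induction measured in BV-2 cells plated at about 80% confluence the day before, given 1 h to attach, then incubated 16 h. Secreted mouse PGRN quantified by ELISA.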

First: O=C(O[C@@H]1CN2CCC1CC2)N1CCc2cccnc2[C@@H]1c1ccc(F)cc1 [Compound 2054, (S)-quinuclidin-3-yl 8-(4-fluorophenyl)-5,6-dihydro-1,7-naphthyridine-7(8H)-carboxylate]
Second: N#Cc1ccc2c(c1)CCN(C(=O)O[C@@H]1CN3CCC1CC3)[C@H]2c1ccc(F)cc1 [Compound 2033]
The EC50 of the first is lower: 4740 nM for the first, over 10000 nM for the second. The first is the more potent here.

First: O=C(O[C@@H]1CN2CCC1(F)CC2)N1CCc2ccccc2[C@@H]1c1ccc(F)cc1 (single isomer, unassigned) [Compound 2126]
Second: N#Cc1ccc2c(c1)[C@@H](c1ccc(F)cc1)N(C(=O)O[C@@H]1CN3CCC1CC3)CC2 [Compound 2036]
The EC50 of the first is lower: 1250 nM for the first, over 10000 nM for the second.

same assay, conditions: Mus musculus, BV-2

`COC(=O)c1ccc2c(c1)[C@H](c1ccc(F)cc1)N(C(=O)O[C@@H]1CN3CCC1CC3)CC2` [Compound 2029] and `COC(=O)c1ccc2c(c1)CCN(C(=O)O[C@@H]1CN3CCC1CC3)[C@@H]2c1ccc(F)cc1` [Compound 2087] cannot be ordered by EC50: over 10000 nM for the first, over 10000 nM for the second.

First: O=C(O[C@@H]1CN2CCC1CC2)N1CCc2ccccc2C1c1ccc2[nH]c(=O)sc2c1 (stereo partly drawn) [Compound 2011]
Second: C#CCOc1ccc2c(c1)CCN(C(=O)O[C@@H]1CN3CCC1CC3)[C@@H]2c1ccc(F)cc1 [Compound 2083]
The EC50 of the first is higher: over 10000 nM for the first, 6070 nM for the second. The second is the more potent here.

`CNC(=O)c1ccc2c(c1)CCN(C(=O)O[C@@H]1CN3CCC1CC3)[C@@H]2c1ccc(F)cc1` [Compound 2101] and `CS(=O)(=O)c1ccc2c(c1)[C@@H](c1ccc(F)cc1)N(C(=O)O[C@@H]1CN3CCC1CC3)CC2` [Compound 2032] cannot be ordered by EC50: over 10000 nM for the first, over 10000 nM for the second.

same assay, conditions: Mus musculus, BV-2, PGRN assay, Table C; secreted mouse PGRN in cell culture medium, ELISA

Going from `O=C([C@H](O)CC12CCN(CC1)CC2)N1CCc2ccccc2[C@@H]1c1ccc(F)cc1` (single isomer, unassigned) [Compound 2154] to `O=C(NCC12CCN(CC1)CC2)N1CCc2ccccc2[C@@H]1c1ccc(F)cc1` [Compound 2178], the EC50 rises from 353 nM to 590 nM (1.7-fold).

`CNC(=O)c1ccc2c(c1)CCN(C(=O)OCC13CCN(CC1)CC3)[C@@H]2c1ccc(F)cc1` [Compound 2081] and `CNC(=O)c1ccc2c(c1)[C@@H](c1ccc(F)cc1)N(C(=O)OCC13CCN(CC1)CC3)CC2` [Compound 2060] cannot be ordered by EC50: over 10000 nM for the first, over 10000 nM for the second.

Going from `C#CCOc1ccc2c(c1)[C@H](c1ccc(F)cc1)N(C(=O)NCC13CCN(CC1)CC3)CC2` [Compound 2192, (S)-1-(4-fluorophenyl)-7-(prop-2-yn-1-yloxy)-N-(quinuclidin-4-ylmethyl)-3,4-dihydroisoquinoline-2(1H)-carboxamide] to `C#CCOc1ccc2c(c1)CCN(C(=O)NCC13CCN(CC1)CC3)[C@@H]2c1ccc(F)cc1` [Compound 2085], the EC50 falls from over 10000 nM to 4990 nM.

First: CN1CCC(COC(=O)N2CCc3ccccc3[C@@H]2c2cccc(F)c2F)CC1 [Compound 2134]
Second: CN1CCC(COC(=O)N2CCc3ccccc3[C@H]2c2cccc(F)c2F)CC1 [Compound 2135]
The EC50 of the first is higher: over 10000 nM for the first, 2660 nM for the second.

Compared with `CN1C2CCC1[C@@H](OC(=O)N1CCc3ccccc3[C@@H]1c1ccc(F)cc1)CC2` (stereo partly drawn) [Compound 2016], `CN1CC2COC[C@H](C1)C2OC(=O)N1CCc2ccccc2[C@@H]1c1ccc(F)cc1` (stereo partly drawn) [Compound 2144, (S)-((1R,5S,9r)-7-methyl-3-oxa-7-azabicyclo[3.3.1]nonan-9-yl) 1-(4-fluorophenyl)-3,4-dihydroisoquinoline-2(1H)-carboxylate] is 2.3-fold higher in EC50: 581 nM for the first, 1340 nM for the second. The first is the more potent here.

Compared with `COCCOCCOc1ccc(COc2ccc([C@H]3c4ccccc4CCN3C(=O)OCC34CCN(CC3)CC4)cc2)cc1` [Compound 2046], `C#CCOc1ccc2c(c1)[C@H](c1ccc(F)cc1)N(C(=O)OCC13CCN(CC1)CC3)CC2` [Compound 2052, (S)-quinuclidin-4-ylmethyl 1-(4-fluorophenyl)-7-(prop-2-ynyloxy)-3,4-dihydroisoquinoline-2(1H)-carboxylate] is 4-fold higher in EC50: 1720 nM for the first, 6820 nM for the second.

Going from `O=C(N[C@H]1CCN2CCC[C@H]12)N1CCc2ccccc2[C@@H]1c1ccc(F)cc1` [Compound 2050] to `O=C(C[C@H]1CCCNC1)N1CCc2ccccc2[C@@H]1c1ccc(F)cc1` [Compound 2187], the EC50 falls from 3900 nM to 400 nM (9.8-fold).

`CNC(=O)c1ccc2c(c1)CCN(C(=O)N[C@@H]1CN3CCC1CC3)[C@@H]2c1ccc(F)cc1` [Compound 2091] and `CS(=O)(=O)c1ccc2c(c1)[C@H](c1ccc(F)cc1)N(C(=O)N[C@@H]1CN3CCC1CC3)CC2` [Compound 2056] cannot be ordered by EC50: over 10000 nM for the first, over 10000 nM for the second.

Compared with `O=C(OCC1CCNCC1)N1CCc2ccccc2[C@@H]1c1ccc(F)cc1` [Compound 2170], `CN1CCC(CCOC(=O)N2CCc3ccccc3[C@@H]2c2ccc(F)cc2)CC1` [Compound 2163] is higher in EC50: 1590 nM for the first, over 10000 nM for the second.

Compared with `CN1CCC(OC(=O)N2CCc3ccccc3[C@@H]2c2ccc(F)cc2)(C(F)(F)F)CC1` [Compound 2128, 1-methyl-4-(trifluoromethyl)piperidin-4-yl (S)-1-(4-fluorophenyl)-3,4-dihydroisoquinoline-2(1H)-carboxylate], `O=C(Nc1ccncc1)N1CCc2ccccc2[C@@H]1c1ccc(F)cc1` [Compound 2151] is 6.5-fold lower in EC50: 7540 nM for the first, 1160 nM for the second. The second is the more potent here.

`CNC(=O)c1ccc2c(c1)CCN(C(=O)NCC13CCN(CC1)CC3)[C@H]2c1ccc(F)cc1` [Compound 2070] gave an EC50 of 3620 nM.

same assay, conditions: Mus musculus, BV-2, PGRN assay, Table D; secreted mouse PGRN in cell culture medium, ELISA

Going from `CN1CC[C@H](OC(=O)N2CCc3ccccc3[C@@H]2c2ccc(F)cc2)C1` [Compound 2251] to `O=C(O[C@H]1CCNC1)N1CCc2ccccc2[C@H]1c1ccc(F)cc1` [Compound 2272], the EC50 rises from 110 nM to 2030 nM (18-fold).

First: O=C(N[C@H]1CCNC1)N1CCc2ccccc2[C@@H]1c1ccc(F)cc1 [Compound 2222]
Second: O=C(N[C@@H]1CNC[C@H]1F)N1CCc2ccccc2[C@@H]1c1ccc(F)cc1 [Compound 2360]
The EC50 of the first is 6.4-fold higher: 940 nM for the first, 148 nM for the second. The second is the more potent here.

First: O=C1N[C@H](CNC(=O)N2CCc3ccccc3[C@@H]2c2ccc(F)cc2)CO1 [Compound 2259, (S)-1-(4-fluorophenyl)-N—(((R)-2-oxooxazolidin-4-yl)methyl)-3,4-dihydroisoquinoline-2(1H)-carboxamide]
Second: O=C(NC[C@H]1CCCN1)N1CCc2ccccc2[C@@H]1c1ccc(F)cc1 [Compound 2216]
The EC50 of the first is higher: over 10000 nM for the first, 2670 nM for the second. The second is the more potent here.

Compared with `CC1(C)CNC[C@@H]1NC(=O)N1CCc2ccccc2[C@@H]1c1ccc(F)cc1` [Compound 2268], `CC1(C)CNC[C@H]1OC(=O)N1CCc2ccccc2[C@@H]1c1ccc(F)cc1` [Compound 2292] is 2.4-fold higher in EC50: 180 nM for the first, 431 nM for the second. The first is the more potent here.

`NC[C@H]1CN(C(=O)N2CCc3ccccc3[C@@H]2c2ccc(F)cc2)CCO1` [Compound 2303] and `NC[C@@H]1CCN(C(=O)N2CCc3ccccc3[C@@H]2c2ccc(F)cc2)C1` [Compound 2279, ((S)-3-(aminomethyl)pyrrolidin-1-yl)((S)-1-(4-fluorophenyl)-3,4-dihydroisoquinolin-2(1H)-yl)methanone] are within 1.5-fold of each other in EC50: 329 nM for the first, 428 nM for the second.

Going from `O=C(N1CC[C@]2(CNCCO2)C1)N1CCc2ccccc2[C@@H]1c1ccc(F)cc1` (single isomer, unassigned) [Compound 2326] to `O=C(N1CC[C@@]2(CNCCO2)C1)N1CCc2ccccc2[C@@H]1c1ccc(F)cc1` (single isomer, unassigned) [Compound 2324], the EC50 rises from 189 nM to 742 nM (3.9-fold). The first is the more potent here.

First: CN1CCC(C(=O)C(=O)N2CCc3ccccc3[C@@H]2c2ccc(F)cc2)C1 (stereo partly drawn) [Compound 2274, 1-((S)-1-(4-fluorophenyl)-3,4-dihydroisoquinolin-2(1H)-yl)-2-(1-methylpyrrolidin-3-yl)ethane-1,2-dione]
Second: CN1CCC(C(O)C(=O)N2CCc3ccccc3[C@@H]2c2ccc(F)cc2)C1 (stereo partly drawn) [Compound 2267, 1-((S)-1-(4-fluorophenyl)-3,4-dihydroisoquinolin-2(1H)-yl)-2-hydroxy-2-(1-methylpyrrolidin-3-yl)ethanone]
The EC50 of the first is 11-fold higher: 1400 nM for the first, 130 nM for the second.

`O=C(NC1(C2CCNCC2)CC1)N1CCc2ccccc2[C@@H]1c1ccc(F)cc1` [Compound 2208] and `O=C(NC[C@H]1CCCN1)N1CCc2ccccc2[C@H]1c1ccc(F)cc1` (single isomer, unassigned) [Compound 2219] are within 1.5-fold of each other in EC50: 7220 nM for the first, 6210 nM for the second.

`O=C(O[C@H]1CNCC12CC2)N1CCc2ccccc2[C@@H]1c1ccc(F)cc1` (stereo in doubt) [Compound 2309, 5-azaspiro[2.4]heptan-7-yl-(1 S)-1-(4-fluorophenyl)-3,4-dihydroisoquinoline-2(1H)-carboxylate] and `O=C(O[C@@H]1CNCC12CC2)N1CCc2ccccc2[C@@H]1c1ccc(F)cc1` (stereo in doubt) [Compound 2310, 5-azaspiro[2.4]heptan-7-yl-(1 S)-1-(4-fluorophenyl)-3,4-dihydroisoquinoline-2(1H)-carboxylate] are within 1.5-fold of each other in EC50: 600 nM for the first, 501 nM for the second.

Going from `O=C(OC[C@@]1(F)CCNC1)N1CCc2ccccc2[C@@H]1c1ccc(F)cc1` (single isomer, unassigned) [Compound 2255] to `O=C(O[C@@H]1CNCC1(F)F)N1CCc2ccccc2[C@@H]1c1ccc(F)cc1` [Compound 2242], the EC50 rises from 240 nM to 3950 nM (16-fold).

`CN(C(=O)N1CCc2ccccc2[C@@H]1c1ccc(F)cc1)[C@H]1CCNC1` [Compound 2248] and `O=C(O[C@H]1CNCCOC1)N1CCc2ccccc2[C@@H]1c1ccc(F)cc1` [Compound 2263] are within 1.5-fold of each other in EC50: 1240 nM for the first, 1280 nM for the second.

Compared with `CN1CCN(C(=O)N2CCc3ccccc3[C@@H]2c2ccc(F)cc2)CC(F)(F)C1` [Compound 2261, (S)-(6,6-difluoro-4-methyl-1,4-diazepan-1-yl)(1-(4-fluorophenyl)-3,4-dihydroisoquinolin-2(1H)-yl)methanone hydrochloride], `CN(C)[C@@H]1CCN(C(=O)N2CCc3ccccc3[C@@H]2c2ccc(F)cc2)C1` [Compound 2312] is lower in EC50: over 10000 nM for the first, 987 nM for the second. The second is the more potent here.

same assay, conditions: PGRN assay, Table C; secreted mouse PGRN in cell culture medium, ELISA

`O=C(OC1[C@@H]2CC3C[C@@H]1CN(C3)C2)N1CCc2ccccc2[C@@H]1c1ccc(F)cc1` (stereo partly drawn) [Compound 2097] showed an EC50 of 2820 nM.

same assay, conditions: PGRN assay, Table D; secreted mouse PGRN in cell culture medium, ELISA

`O=C(N[C@H]1CNCCOC1)N1CCc2ccccc2[C@@H]1c1ccc(F)cc1` (single isomer, unassigned) [Compound 2275] was tested, and the EC50 was 447 nM.
